In ChEMBL document CHEMBL5625183, “Discovery of a novel dual-target inhibitor of CDK12 and PARP1 that induces synthetic lethality for treatment of triple-negative breast cancer” (Eur J Med Chem, 2023):
pIC50: −log10 of the molar value.

Tests used:
MDA-MB-231 = experiment: Antiproliferative activity against human MDA-MB-231 cells assessed as inhibition of cell growth incubated for 24 hrs by MTT assay; type: functional, cell-based; conditions: MDA-MB-231, 24 h
MDA-MB-468 = experiment: Antiproliferative activity against human MDA-MB-468 cells assessed as inhibition of cell growth incubated for 24 hrs by MTT assay; type: functional, cell-based; conditions: MDA-MB-468, 24 h
MDA-MB-436 = experiment: Antiproliferative activity against human MDA-MB-436 cells assessed as inhibition of cell growth incubated for 24 hrs by MTT assay; type: functional, cell-based; conditions: Homo sapiens, MDA-MB-436, 24 h
[1] = target: Cyclin-dependent kinase 12 (Homo sapiens, UniProt Q9NYV4); experiment: Inhibition of CDK12 (unknown origin) at 1 uM in presence of ATP by kinase-glo plus luminescent assay relative to control
Chain of Cyclin-dependent kinase 12 (Q9NYV4 whole entry, looked up): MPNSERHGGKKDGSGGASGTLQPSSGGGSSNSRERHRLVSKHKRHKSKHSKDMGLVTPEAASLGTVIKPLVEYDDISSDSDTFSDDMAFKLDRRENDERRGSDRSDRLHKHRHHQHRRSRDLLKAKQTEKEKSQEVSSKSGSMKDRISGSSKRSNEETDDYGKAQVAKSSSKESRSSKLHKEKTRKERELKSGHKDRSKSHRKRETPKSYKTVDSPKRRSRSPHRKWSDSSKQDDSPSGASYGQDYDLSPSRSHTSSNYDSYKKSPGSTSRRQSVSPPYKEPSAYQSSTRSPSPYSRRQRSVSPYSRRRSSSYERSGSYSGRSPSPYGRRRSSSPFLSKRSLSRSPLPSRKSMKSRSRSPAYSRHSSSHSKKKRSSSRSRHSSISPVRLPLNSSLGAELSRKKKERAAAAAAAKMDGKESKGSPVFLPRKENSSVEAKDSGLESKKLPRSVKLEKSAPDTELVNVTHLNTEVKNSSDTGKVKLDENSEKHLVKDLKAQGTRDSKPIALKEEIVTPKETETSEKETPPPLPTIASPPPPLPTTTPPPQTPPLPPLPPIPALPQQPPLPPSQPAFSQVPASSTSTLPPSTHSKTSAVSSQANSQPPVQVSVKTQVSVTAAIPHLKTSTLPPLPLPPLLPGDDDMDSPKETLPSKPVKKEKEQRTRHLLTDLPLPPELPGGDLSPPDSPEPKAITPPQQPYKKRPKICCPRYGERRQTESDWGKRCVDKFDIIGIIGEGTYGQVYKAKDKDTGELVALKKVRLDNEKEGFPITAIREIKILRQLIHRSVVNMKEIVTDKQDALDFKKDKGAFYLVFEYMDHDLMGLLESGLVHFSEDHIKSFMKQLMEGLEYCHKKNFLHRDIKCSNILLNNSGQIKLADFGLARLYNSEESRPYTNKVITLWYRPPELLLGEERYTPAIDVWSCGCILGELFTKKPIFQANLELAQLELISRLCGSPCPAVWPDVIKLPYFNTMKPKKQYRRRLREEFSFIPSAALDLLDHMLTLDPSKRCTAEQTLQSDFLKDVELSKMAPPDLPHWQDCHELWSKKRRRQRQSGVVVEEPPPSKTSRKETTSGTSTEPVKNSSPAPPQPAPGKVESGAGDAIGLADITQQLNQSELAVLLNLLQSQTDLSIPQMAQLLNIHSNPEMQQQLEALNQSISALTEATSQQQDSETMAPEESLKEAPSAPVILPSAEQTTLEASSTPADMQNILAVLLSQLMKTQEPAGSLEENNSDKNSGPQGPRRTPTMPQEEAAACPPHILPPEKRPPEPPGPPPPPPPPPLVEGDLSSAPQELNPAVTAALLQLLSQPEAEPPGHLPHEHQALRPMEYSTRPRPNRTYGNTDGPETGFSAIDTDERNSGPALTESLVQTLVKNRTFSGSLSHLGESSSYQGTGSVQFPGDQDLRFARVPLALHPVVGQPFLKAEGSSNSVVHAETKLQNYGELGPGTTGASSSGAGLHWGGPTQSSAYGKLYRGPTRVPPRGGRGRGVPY

Structure (SMILES) | pIC50 (MDA-MB-231) | pIC50 (MDA-MB-468) | pIC50 (MDA-MB-436) | inhibition [1] [%]
COc1cnc(NC2CCN(C(=O)c3ccc(C(=O)Nc4nc5c(C(N)=O)cccc5[nH]4)cc3)CC2)nc1 | 4.56 | 4.54 | 4.59 | 31.5
N#Cc1ccc(NC2CCN(C(=O)c3ccc(C(=O)Nc4nc5c(C(N)=O)cccc5[nH]4)cc3)CC2)nc1 | < 4.52 | < 4.52 | < 4.52 | 13.3
NC(=O)c1cccc2[nH]c(NC(=O)c3ccc(C(=O)N4CCC(Nc5ccc(C(F)(F)F)cn5)CC4)cc3)nc12 | < 4.52 | < 4.52 | < 4.52 | 26.7
NC(=O)c1cccc2[nH]c(NC(=O)c3ccc(CN4CCC(Nc5ncc(Cl)cn5)CC4)cc3)nc12 | 4.57 | < 4.52 | 4.59 | 43.1
NC(=O)c1cccc2[nH]c(NC(=O)c3ccc(C(=O)N4CCN(c5ncc(F)cn5)CC4)cc3)nc12 | < 4.52 | < 4.52 | < 4.52 | 19.8
NC(=O)c1cccc2[nH]c(NC(=O)c3ccc(CN4CCC(Nc5ncc(I)cn5)CC4)cc3)nc12 | < 4.52 | 4.56 | 4.54 | 40.8
NC(=O)c1cccc2[nH]c(NC(=O)c3ccc(CN4CCC(Nc5ncc(C(F)(F)F)cn5)CC4)cc3)nc12 | 4.57 | 4.56 | < 4.52 | 34
NC(=O)c1cccc2[nH]c(NC(=O)c3ccc(C(=O)N4CCC(Nc5ncc(Br)cn5)CC4)cc3)nc12 | 4.71 | 4.67 | 4.76 | 55.4
NC(=O)c1cccc2[nH]c(NC(=O)c3cccc(C(=O)N4CCN(c5ncc(I)cn5)CC4)c3)nc12 | 4.70 | 4.66 | 4.68 | 49.6
NC(=O)c1cccc2[nH]c(NC(=O)c3cccc(C(=O)N4CCN(c5ncc(F)cn5)CC4)c3)nc12 | < 4.52 | < 4.52 | < 4.52 | 31.6
CCc1cnc(NC2CCN(C(=O)c3ccc(C(=O)Nc4nc5c(C(N)=O)cccc5[nH]4)cc3)CC2)nc1 | 4.61 | 4.61 | 4.65 | 44.1
NC(=O)c1cccc2[nH]c(NC(=O)c3ccc(C(=O)N4CCN(c5ccc(C(F)(F)F)cn5)CC4)cc3)nc12 | 4.57 | 4.56 | 4.59 | 39.8
NC(=O)c1cccc2[nH]c(NC(=O)c3ccc(CN4CCC(Nc5ncc(Br)cn5)CC4)cc3)nc12 | 4.58 | 4.59 | 4.62 | 45.4
NC(=O)c1cccc2[nH]c(NC(=O)c3ccc(S(=O)(=O)N4CCC(Nc5ncc(Br)cn5)CC4)cc3)nc12 | 4.58 | 4.61 | < 4.52 | 77.6
Cc1cnc(NC2CCN(C(=O)c3cccc(C(=O)Nc4nc5c(C(N)=O)cccc5[nH]4)c3)CC2)nc1 | < 4.52 | < 4.52 | < 4.52 | 1.3
NC(=O)c1cccc2[nH]c(NC(=O)c3ccc(C(=O)N4CCC(Nc5ncc(Cl)cn5)CC4)cc3)nc12 | 4.60 | 4.63 | 4.68 | 50.7
NC(=O)c1cccc2[nH]c(NC(=O)c3cccc(C(=O)N4CCN(c5ncc(Br)cn5)CC4)c3)nc12 | 4.61 | 4.63 | 4.66 | 46.2
CCc1cnc(NC2CCN(C(=O)c3cccc(C(=O)Nc4nc5c(C(N)=O)cccc5[nH]4)c3)CC2)nc1 | 4.62 | 4.64 | 4.67 | 48.7
N#Cc1cnc(N2CCN(C(=O)c3cccc(C(=O)Nc4nc5c(C(N)=O)cccc5[nH]4)c3)CC2)nc1 | < 4.52 | < 4.52 | < 4.52 | 32.6
NC(=O)c1cccc2[nH]c(NC(=O)c3ccc(C(=O)N4CCC(Nc5ncc([N+](=O)[O-])cn5)CC4)cc3)nc12 | < 4.52 | < 4.52 | < 4.52 | 24.1
NC(=O)c1cccc2[nH]c(NC(=O)c3ccc(CN4CCC(Nc5ncc(F)cn5)CC4)cc3)nc12 | < 4.52 | < 4.52 | < 4.52 | 30.3
NC(=O)c1cccc2[nH]c(NC(=O)c3ccc(C(=O)N4CCC(Nc5ccc(Br)cn5)CC4)cc3)nc12 | < 4.52 | < 4.52 | < 4.52 | 25.9
NC(=O)c1cccc2[nH]c(NC(=O)c3ccc(C(=O)N4CCC(Nc5ccc(I)cn5)CC4)cc3)nc12 | < 4.52 | < 4.52 | < 4.52 | 29.8

Structure (SMILES) | pIC50 (MDA-MB-231) | pIC50 (MDA-MB-468) | pIC50 (MDA-MB-436) | inhibition [1] [%]
NC(=O)c1cccc2[nH]c(NC(=O)c3ccc(C(=O)N4CCN(c5ncc(Cl)cn5)CC4)cc3)nc12 | 4.55 | 4.56 | 4.56 | 37.4
NC(=O)c1cccc2[nH]c(NC(=O)c3ccc(C(=O)N4CCN(c5ncc(I)cn5)CC4)cc3)nc12 | 4.59 | 4.58 | 4.64 | 45.2
NC(=O)c1cccc2[nH]c(NC(=O)c3cccc(C(=O)N4CCC(Nc5ncccn5)CC4)c3)nc12 | < 4.52 | < 4.52 | < 4.52 | 25
NC(=O)c1cccc2[nH]c(NC(=O)c3ccc(C(=O)N4CCC(Nc5nccc(C(F)(F)F)n5)CC4)cc3)nc12 | < 4.52 | < 4.52 | < 4.52 | 16.8
NC(=O)c1cccc2[nH]c(NC(=O)c3cccc(C(=O)N4CCN(c5ccc(C(F)(F)F)cn5)CC4)c3)nc12 | 4.60 | 4.56 | 4.61 | 46.4
NC(=O)c1cccc2[nH]c(NC(=O)c3cccc(C(=O)N4CCN(c5ncc(C(F)(F)F)cn5)CC4)c3)nc12 | 4.72 | 4.71 | 4.75 | 52.1
Cc1cnc(NC2CCN(C(=O)c3ccc(C(=O)Nc4nc5c(C(N)=O)cccc5[nH]4)cc3)CC2)nc1 | 4.59 | 4.56 | 4.64 | 35.6
N#Cc1cnc(NC2CCN(C(=O)c3ccc(C(=O)Nc4nc5c(C(N)=O)cccc5[nH]4)cc3)CC2)nc1 | < 4.52 | < 4.52 | < 4.52 | 27.5
NC(=O)c1cccc2[nH]c(NC(=O)c3ccc(C(=O)N4CCC(Nc5ncc(F)cn5)CC4)cc3)nc12 | 4.54 | 4.58 | 4.61 | 38.8
NC(=O)c1cccc2[nH]c(NC(=O)c3cccc(C(=O)N4CCC(Nc5ncc([N+](=O)[O-])cn5)CC4)c3)nc12 | < 4.52 | < 4.52 | < 4.52 | 5.4
NC(=O)c1cccc2[nH]c(NC(=O)c3ccc(C(=O)N4CCN(c5ncc(Br)cn5)CC4)cc3)nc12 | 4.62 | 4.60 | 4.63 | 41.6
NC(=O)c1cccc2[nH]c(NC(=O)c3ccc(S(=O)(=O)N4CCC(Nc5ncc(C(F)(F)F)cn5)CC4)cc3)nc12 | 4.57 | 4.60 | 4.57 | 69.9
N#Cc1cnc(N2CCN(C(=O)c3ccc(C(=O)Nc4nc5c(C(N)=O)cccc5[nH]4)cc3)CC2)nc1 | < 4.52 | < 4.52 | < 4.52 | 28.5
NC(=O)c1cccc2[nH]c(NC(=O)c3cccc(C(=O)N4CCC(Nc5ccc(I)cn5)CC4)c3)nc12 | < 4.52 | < 4.52 | < 4.52 | 30.1
NC(=O)c1cccc2[nH]c(NC(=O)c3cccc(C(=O)N4CCC(Nc5ccc(C(F)(F)F)cn5)CC4)c3)nc12 | < 4.52 | < 4.52 | < 4.52 | 19.8
COc1cnc(NC2CCN(C(=O)c3cccc(C(=O)Nc4nc5c(C(N)=O)cccc5[nH]4)c3)CC2)nc1 | 4.60 | 4.55 | 4.64 | 36.4
NC(=O)c1cccc2[nH]c(NC(=O)c3cccc(C(=O)N4CCC(Nc5ccc(Br)cn5)CC4)c3)nc12 | < 4.52 | < 4.52 | < 4.52 | 25.6
NC(=O)c1cccc2[nH]c(NC(=O)c3ccc(C(=O)N4CCC(Nc5ncccn5)CC4)cc3)nc12 | 4.52 | 4.54 | 4.60 | 32.4
NC(=O)c1cccc2[nH]c(NC(=O)c3ccc(C(=O)N4CCC(Nc5ncc(I)cn5)CC4)cc3)nc12 | 4.71 | 4.73 | 4.78 | 61.7
NC(=O)c1cccc2[nH]c(NC(=O)c3ccc(C(=O)N4CCC(Nc5ncc(C(F)(F)F)cn5)CC4)cc3)nc12 | 4.64 | 4.60 | 4.63 | 54.6
NC(=O)c1cccc2[nH]c(NC(=O)c3cccc(C(=O)N4CCN(c5ncc(Cl)cn5)CC4)c3)nc12 | 4.60 | 4.62 | < 4.52 | 44.1
N#Cc1cnc(NC2CCN(C(=O)c3cccc(C(=O)Nc4nc5c(C(N)=O)cccc5[nH]4)c3)CC2)nc1 | < 4.52 | < 4.52 | < 4.52 | 21.7
NC(=O)c1cccc2[nH]c(NC(=O)c3ccc(C(=O)N4CCN(c5ncc(C(F)(F)F)cn5)CC4)cc3)nc12 | 4.62 | 4.62 | 4.62 | 43
